Results reported in patent US6825230B2, “Spiro and dispiro 1,2,4-trixolane antimalarials” (Medicines for Malaria Venture MMV, priority 2002, dated 2004).
≈ marks a conversion by molar mass, not a printed value. Where two headings read alike, the source gives them in different places.

Assays:
[1] = system: chloroquine-resistant K1 strain of P. falciparum; assay: In vitro antimalarial semiautomated microdilution assay ([3H]-hypoxanthine incorporation), K1 strain; type: cell-based, Plasmodium falciparum; conditions: Plasmodium falciparum
In short: (§1)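 IC50 comes from Logit regression of [3H]-hypoxanthine incorporation data. Intraerythrocytic P. falciparum taken from asynchronous stock cultures is exposed to OZ compounds in a semiautomated microdilution format.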

[2] = system: chloroquine-sensitive NF54 strain of P. falciparum; assay: In vitro antimalarial semiautomated microdilution assay ([3H]-hypoxanthine incorporation), NF54 strain; type: cell-based, Plasmodium falciparum; conditions: Plasmodium falciparum
In short: as §1

[3] = system: ANKA strain of P. berghei; assay: Single dose STI in vivo screen in infected mice; set-up: species or system Plasmodium berghei; conditions: for Survival (days) 10 mg/kg po: single 10 mg/kg po in 3% ethanol and 7% Tween 80; for Survival (days) 10 mg/kg po / Survival (days) 10 mg/kg SSV po / Survival (days) 10 mg/kg sc: untreated 6-7 days; for Activity (%) 10 mg/kg po: single 10 mg/kg po in 3% ethanol and 7% Tween 80 on day 1 post-infection; for Survival (days) 10 mg/kg SSV po: single 10 mg/kg po in SSV; for Activity (%) 10 mg/kg SSV po: single 10 mg/kg po in standard suspending vehicle (SSV) on day 1 post-infection; for Survival (days) 10 mg/kg sc: single 10 mg/kg sc in 3% ethanol and 7% Tween 80; for Activity (%) 10 mg/kg sc: single 10 mg/kg sc in 3% ethanol and 7% Tween 80 on day 1 post-infection
[4] = chloroquine-resistant K1 strain, 72 h incubation, read-out: IC50 (ng/ml) K1
[5] = chloroquine-sensitive NF54 strain, 72 h incubation, read-out: IC50 (ng/ml) NF54
[6] = percent reduction in parasitemia on day 3
[7] = K1, 72 h, read-out: IC50 (ng/ml) K1, chloroquine-resistant K1 strain, 72 h incubation
[8] = NF54, 72 h, read-out: IC50 (ng/ml) NF54, chloroquine-sensitive NF54 strain, 72 h incubation

Structure (SMILES)	IC50 [1, 4] [ng/mL]	IC50 [2, 5] [ng/mL]	Survival (days) 10 mg/kg po [3]	Activity (%) 10 mg/kg po [3, 6]	Survival (days) 10 mg/kg SSV po [3]	Activity (%) 10 mg/kg SSV po [3, 6]	Survival (days) 10 mg/kg sc [3]	Activity (%) 10 mg/kg sc [3, 6]	IC50 [1, 7] [ng/mL]	IC50 [2, 8] [ng/mL]	Survival (days) 3 mg/kg SSV po ([3]; single 3 mg/kg po in SSV) [days]	Activity (%) 3 mg/kg SSV po ([3]; single 3 mg/kg po in SSV, percent reduction in parasitemia on day 3) [%]
O=C(C[C@H]1CC[C@]2(CC1)OOC1(O2)C2CC3CC(C2)CC1C3)Nc1nccs1 (stereo partly shown) [OZ217]	2 (≈ 4.94 nM)	2 (≈ 4.94 nM)	7.0 days	67%	6.0 days	8%	8.0 days	98%	–	–	–	–
O=C1c2ccccc2C(=O)N1[C@H]1CC[C@]2(CC1)OOC1(O2)C2CC3CC(C2)CC1C3 (stereo partly shown) [OZ136]	–	–	6.0/6.0/6.0 days	0/0/0%	6.0/6.0/6.0 days	0/0/0%	6.0/6.0/6.0 days	0/0/0%	23 (≈ 56.2 nM)	21 (≈ 51.3 nM)	–	–
NC[C@H]1CC[C@@]2(CC1)OOC1(O2)C2CC3CC(C2)CC1C3 (stereo partly shown) [OZ269]	0.32 (≈ 1.09 nM)	0.61 (≈ 2.08 nM)	10.7 days	98%	11.3 days	86%	9.0 days	99.92%	–	–	–	–
OCC1(CO)COC2(CCC3(CC2)OOC2(O3)C3CC4CC(C3)CC2C4)OC1 (stereo not shown) [OZ121, Adamantane-2-spiro-3′-11′,11′-bis(hydroxymethyl)-1′,2′,4′,9′,13′-pentaoxadispiro[4.2.5.2]pentadecane]	–	–	7.3 days	91%	8.0 days	98%	7.3 days	99.61%	0.96 (≈ 2.42 nM)	0.41 (≈ 1.03 nM)	–	–
O=C1c2ccccc2C(=O)N1CC1(c2ccccc2)CCC2(CC1)OOC1(O2)C2CC3CC(C2)CC1C3 (stereo not shown) [OZ97]	–	–	6.7 days	59%	5.3 days	2%	7.0 days	66%	2.2 (≈ 4.4 nM)	1.8 (≈ 3.6 nM)	–	–
CCOC(=O)C1(C(=O)OCC)COC2(CCC3(CC2)OOC2(O3)C3CC4CC(C3)CC2C4)OC1 (stereo not shown) [OZ120, Adamantane-2-spiro-3′-11′,11′-bis(ethoxycarbonyl)-1′,2′,4′,9′,13′-pentaoxadispiro[4.2.5.2]pentadecane]	1.2 (≈ 2.5 nM)	0.59 (≈ 1.23 nM)	6.0 days	33%	5.7 days	8%	8.0 days	96%	–	–	–	–
CCOC(=O)c1cccc([C@H]2CC[C@]3(CC2)OOC2(O3)C3CC4CC(C3)CC2C4)c1 (stereo partly shown) [OZ208]	6 (≈ 14.5 nM)	6.5 (≈ 15.8 nM)	6.3 days	0%	6.7 days	29%	5.7 days	10%	–	–	–	–
CN(C)S(=O)(=O)N1CCC2(CC1)OOC1(O2)C2CC3CC(C2)CC1C3 (stereo not shown) [OZ190, Adamantane-2-spiro-3′-8′-(dimethylaminosulfonyl)-1′,2′,4′-trioxa-8′-azaspiro[4.5]decane]	–	–	8.7 days	98%	7.7 days	78%	5.7 days	2%	0.16 (≈ 0.43 nM)	1 (≈ 2.68 nM)	–	–
O=C(O)C1CCN(C(=O)C[C@H]2CC[C@]3(CC2)OO[C@]2(O3)C3CC4CC(C3)CC2C4)CC1 [OZ312]	–	–	–	–	7.2 days	43%	–	–	19 (≈ 43.8 nM)	27 (≈ 62.3 nM)	6.2	13
